Laboratory results as given in patent US10308643B2, “Heterocyclic compound” (Takeda Pharmaceutical Company Limited, priority 2015, dated 2019).

Columns and labels:
HDAC9 enzyme = biological target: T1, HDAC9 enzyme (Homo sapiens, UniProt Q9UKV0); test: HDAC9 Enzyme Inhibitory Assay (HDAC-Glo class IIa); type: biochemical; conditions: 1 μM test compound; wells without enzyme = 100% inhibition; read-out: HDAC9 inhibitory rate (%) (1 μM)
T1 construct: transducing full length HDAC9 gene into Sf-9 insect cells; made in house; host or cells: Sf-9 insect cells
T1 sequence (Q9UKV0 whole entry, species assumed): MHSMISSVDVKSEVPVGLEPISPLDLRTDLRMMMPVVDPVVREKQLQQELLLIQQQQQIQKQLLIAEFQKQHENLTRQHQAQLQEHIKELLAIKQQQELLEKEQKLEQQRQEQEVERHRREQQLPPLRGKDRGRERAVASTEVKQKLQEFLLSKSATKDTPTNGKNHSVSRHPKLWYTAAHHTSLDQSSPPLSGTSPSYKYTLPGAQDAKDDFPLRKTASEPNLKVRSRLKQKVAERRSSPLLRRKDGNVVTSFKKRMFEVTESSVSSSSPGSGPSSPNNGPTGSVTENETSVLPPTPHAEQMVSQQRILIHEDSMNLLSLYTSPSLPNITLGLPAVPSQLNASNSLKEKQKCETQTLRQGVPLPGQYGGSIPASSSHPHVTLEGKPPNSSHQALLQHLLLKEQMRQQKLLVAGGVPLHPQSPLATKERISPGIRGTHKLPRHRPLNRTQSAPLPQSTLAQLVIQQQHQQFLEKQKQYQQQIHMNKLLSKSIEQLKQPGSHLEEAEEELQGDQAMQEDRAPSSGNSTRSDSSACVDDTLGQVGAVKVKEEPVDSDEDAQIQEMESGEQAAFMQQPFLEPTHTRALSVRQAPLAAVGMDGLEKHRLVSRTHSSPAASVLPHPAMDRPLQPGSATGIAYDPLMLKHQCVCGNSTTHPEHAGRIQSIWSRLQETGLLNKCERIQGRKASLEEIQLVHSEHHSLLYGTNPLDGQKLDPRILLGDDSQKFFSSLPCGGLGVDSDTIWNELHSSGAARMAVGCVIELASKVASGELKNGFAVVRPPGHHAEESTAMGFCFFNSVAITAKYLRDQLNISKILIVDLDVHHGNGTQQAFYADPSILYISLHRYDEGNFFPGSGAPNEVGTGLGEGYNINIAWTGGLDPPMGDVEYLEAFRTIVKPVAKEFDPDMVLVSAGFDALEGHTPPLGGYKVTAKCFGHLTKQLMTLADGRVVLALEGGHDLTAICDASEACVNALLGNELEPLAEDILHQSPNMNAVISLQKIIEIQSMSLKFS
In short: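 Luminescent HDAC-Glo class IIa readout after a 20 min room-temperature reaction; relative inhibition referenced to enzyme-free wells as 100%. Test compound first preincubated 60 min with Sf-9-expressed, Ni-NTA-purified full-length HDAC9 in pH 7.5 Tris buffer containing 135 mM NaCl, 0.6 mM glutathione and 0.01% Tween-20.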

HDAC6 enzyme = biological target: T2, HDAC6 enzyme (Homo sapiens, UniProt Q9UBN7); test: HDAC1/6 Enzyme Inhibitory Assay (HDAC-Glo I/II Assay kit), HDAC6; type: biochemical; conditions: 1 μM test compound; wells without enzyme = 100% inhibition; read-out: HDAC6 inhibitory rate (%) (1 μM)
T2 construct: transducing full length HDAC1 and HDAC6 genes into Sf-9 insect cells; GST; purchased SignalChem; host or cells: Sf-9 insect cells
T2 sequence (Q9UBN7 1-1215): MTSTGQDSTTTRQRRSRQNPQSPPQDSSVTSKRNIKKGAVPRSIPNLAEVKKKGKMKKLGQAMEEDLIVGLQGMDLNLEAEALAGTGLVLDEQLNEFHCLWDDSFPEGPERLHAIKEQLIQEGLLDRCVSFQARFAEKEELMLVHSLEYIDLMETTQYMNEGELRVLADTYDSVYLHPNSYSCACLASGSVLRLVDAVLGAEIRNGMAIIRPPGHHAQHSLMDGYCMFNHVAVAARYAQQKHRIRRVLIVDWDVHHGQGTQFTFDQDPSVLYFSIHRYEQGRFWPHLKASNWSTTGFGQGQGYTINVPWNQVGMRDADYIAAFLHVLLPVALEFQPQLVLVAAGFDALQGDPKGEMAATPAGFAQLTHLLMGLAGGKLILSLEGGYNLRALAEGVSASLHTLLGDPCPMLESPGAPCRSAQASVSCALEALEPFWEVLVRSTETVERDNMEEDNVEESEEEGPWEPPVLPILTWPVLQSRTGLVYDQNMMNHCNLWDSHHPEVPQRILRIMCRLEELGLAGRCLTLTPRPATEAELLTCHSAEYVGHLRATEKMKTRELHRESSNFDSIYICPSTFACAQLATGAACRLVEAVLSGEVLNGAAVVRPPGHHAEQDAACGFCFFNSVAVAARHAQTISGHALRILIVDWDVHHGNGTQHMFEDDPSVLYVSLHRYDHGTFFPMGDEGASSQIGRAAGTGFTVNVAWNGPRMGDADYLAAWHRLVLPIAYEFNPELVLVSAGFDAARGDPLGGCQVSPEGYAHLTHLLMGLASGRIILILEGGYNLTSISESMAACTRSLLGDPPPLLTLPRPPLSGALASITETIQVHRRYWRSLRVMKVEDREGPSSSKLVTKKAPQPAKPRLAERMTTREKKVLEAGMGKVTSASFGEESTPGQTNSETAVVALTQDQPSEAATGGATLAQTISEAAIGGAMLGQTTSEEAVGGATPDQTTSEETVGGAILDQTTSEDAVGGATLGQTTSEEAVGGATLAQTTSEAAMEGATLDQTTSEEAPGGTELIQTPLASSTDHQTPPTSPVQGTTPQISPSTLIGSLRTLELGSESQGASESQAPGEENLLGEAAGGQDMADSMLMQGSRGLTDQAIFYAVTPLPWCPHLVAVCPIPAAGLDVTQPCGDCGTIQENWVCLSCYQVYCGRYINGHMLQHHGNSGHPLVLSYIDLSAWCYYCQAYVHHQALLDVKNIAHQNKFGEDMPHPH
In short: (§1)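 Full-length human HDAC1 or HDAC6, expressed in Sf-9 cells and GST-purified, was preincubated with compound for 60 min at room temperature in Tris-HCl pH 7.5 buffer with MgCl2, KCl, NaCl, glutathione and Tween-20. HDAC-Glo substrate-developer was then added, and luminescence was read after 20 min. Inhibition was referenced to no-enzyme wells as 100%.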

HDAC1 enzyme = biological target: T3, HDAC1 enzyme (Homo sapiens, UniProt Q13547); test: HDAC1/6 Enzyme Inhibitory Assay (HDAC-Glo I/II Assay kit), HDAC1; type: biochemical; conditions: 1 μM test compound, wells without enzyme = 100% inhibition; for inhibition at 1 µM: read-out: HDAC1 inhibitory rate (%) (1 μM)
T3 construct: transducing full length HDAC1 and HDAC6 genes into Sf-9 insect cells; GST; purchased SignalChem; host or cells: Sf-9 insect cells
T3 sequence (Q13547 whole entry): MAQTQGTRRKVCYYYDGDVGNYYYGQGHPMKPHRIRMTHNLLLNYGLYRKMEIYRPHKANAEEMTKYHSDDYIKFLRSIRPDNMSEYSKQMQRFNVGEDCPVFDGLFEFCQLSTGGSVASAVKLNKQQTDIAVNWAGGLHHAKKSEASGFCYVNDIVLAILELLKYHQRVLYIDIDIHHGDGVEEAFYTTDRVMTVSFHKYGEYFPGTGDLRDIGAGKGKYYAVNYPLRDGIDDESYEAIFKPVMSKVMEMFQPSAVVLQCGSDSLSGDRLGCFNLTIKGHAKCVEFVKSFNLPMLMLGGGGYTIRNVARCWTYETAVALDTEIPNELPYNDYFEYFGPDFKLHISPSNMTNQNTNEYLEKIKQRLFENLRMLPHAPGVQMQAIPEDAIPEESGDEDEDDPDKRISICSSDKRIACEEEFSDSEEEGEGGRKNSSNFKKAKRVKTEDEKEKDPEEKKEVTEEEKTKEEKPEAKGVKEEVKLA
In short: as §1

inhibition at 1 µM (HDAC9 enzyme) [%]	inhibition at 1 µM (HDAC6 enzyme) [%]	inhibition at 1 µM (HDAC1 enzyme) [%]	HDAC1 inhibitory rate (%) (1 μM) (HDAC1 enzyme; 1 µM)	melting point [°C]	Compound
29	99	9	–	–	O=C(N[C@@H]1CCCC[C@H]1N1Cc2ccc(-c3noc(C(F)(F)F)n3)cc2C1=O)N1CC(F)C1 [Example 187, 3-fluoro-N-((1R,2R)-2-(1-oxo-6-(5-(trifluoromethyl)-1,2,4-oxadiazol-3-yl)-1,3-dihydro-2H-isoindol-2-yl)cyclohexyl)azetidine-1-carboxamide]
52	99	5	–	–	O=C(N[C@@H]1CCOC[C@H]1N1Cc2ccc(-c3noc(C(F)(F)F)n3)cc2C1=O)C1CCOC1 (stereo partly drawn) [Example 205, N-((3S,4R)-3-(1-oxo-6-(5-(trifluoromethyl)-1,2,4-oxadiazol-3-yl)-1,3-dihydro-2H-isoindol-2-yl)tetrahydro-2H-pyran-4-yl)tetrahydrofuran-3-carboxamide]
41	74	2	–	–	O=C1CCCN1[C@H]1COCC[C@@H]1N1Cc2ccc(-c3noc(C(F)(F)F)n3)cc2C1=O [Example 181, 2-((3R,4S)-3-(2-oxopyrrolidin-1-yl)tetrahydro-2H-pyran-4-yl)-6-(5-(trifluoromethyl)-1,2,4-oxadiazol-3-yl)isoindolin-1-one]

More lines, now with the values behind:

Compound	inhibition at 1 µM (HDAC9 enzyme) [%]	inhibition at 1 µM (HDAC6 enzyme) [%]	inhibition at 1 µM (HDAC1 enzyme) [%]	HDAC1 inhibitory rate (%) (1 μM) (HDAC1 enzyme; 1 µM)	melting point [°C]
CC(C)(C)OC(=O)N[C@H]1CCC[C@@H]1N1Cc2ccc(-c3noc(C(F)(F)F)n3)cc2C1=O [Example 141, tert-butyl ((1S,2S)-2-(1-oxo-6-(5-(trifluoromethyl)-1,2,4-oxadiazol-3-yl)-1,3-dihydro-2H-isoindol-2-yl)cyclopentyl)carbamate]	43	42	28	–	–
O=C(N[C@@H]1CCCC[C@H]1N1Cc2ccc(-c3noc(C(F)(F)F)n3)cc2C1=O)[C@H]1CC1(F)F [Example 148, (1R)-2,2-difluoro-N-((1R,2R)-2-(1-oxo-6-(5-(trifluoromethyl)-1,2,4-oxadiazol-3-yl)-1,3-dihydro-2H-isoindol-2-yl)cyclohexyl) cyclopropanecarboxamide]	82	100	8	–	–
O=C(N[C@@H]1CCCC[C@H]1N1Cc2ccc(-c3noc(C(F)(F)F)n3)cc2C1=O)N1CCC1 [Example 159, N-((1R,2R)-2-(1-oxo-6-(5-(trifluoromethyl)-1,2,4-oxadiazol-3-yl)-1,3-dihydro-2H-isoindol-2-yl)cyclohexyl)azetidine-1-carboxamide]	39	98	5	–	–
NC(=O)N1CC[C@@H](N2Cc3ccc(-c4noc(C(F)(F)F)n4)cc3C2=O)[C@H](c2ccccc2)C1 [Example 43, (3R,4R)-4-(1-oxo-6-(5-(trifluoromethyl)-1,2,4-oxadiazol-3-yl)-1,3-dihydro-2H-isoindol-2-yl)-3-phenylpiperidine-1-carboxamide]	96	99	90	–	–
O=C(N[C@@H]1CCCC[C@H]1N1Cc2ccc(-c3noc(C(F)(F)F)n3)cc2C1=O)C1CCCCCO1 (stereo partly drawn) [Example 119, N-((1R,2R)-2-(1-oxo-6-(5-(trifluoromethyl)-1,2,4-oxadiazol-3-yl)-1,3-dihydro-2H-isoindol-2-yl)cyclohexyl)oxepane-2-carboxamide]	38	100	–	4	–
O=C(N[C@@H]1CCCC[C@H]1N1Cc2ccc(-c3noc(C(F)(F)F)n3)cc2C1=O)[C@@H]1CCCO1 [Example 90, (2S)-N-((1R,2R)-2-(1-oxo-6-(5-(trifluoromethyl)-1,2,4-oxadiazol-3-yl)-1,3-dihydro-2H-isoindol-2-yl)cyclohexyl)tetrahydrofuran-2-carboxamide]	37	97	5	–	132
Cc1cc([C@@H]2CNCC[C@H]2N2Cc3ccc(-c4noc(C(F)(F)F)n4)cc3C2=O)ccc1F (relative stereo) [Example 49, 2-(trans-3-(4-fluoro-3-methylphenyl)piperidin-4-yl)-6-(5-(trifluoromethyl)-1,2,4-oxadiazol-3-yl)isoindolin-1-one]	99	100	96	–	–
